From patent US7022699B2, “Cyclohexenyl phenyl diazepines vasopressin and oxytocin receptor modulators” (Wyeth, priority 2001, dated 2006)

Assays:
[1] = biological target: T1, human vasopressin V1a receptor subtype (Homo sapiens, UniProt P37288); test: Vasopressin binding in CHO cell membranes expressing human vasopressin V1a subtype receptors ([3H]Manning ligand); settings: for inhibition at 0.1 µM / V1a % inhibition @ 100 nM: 100 nM, values without parentheses
T1 construct: host or cells: CHO cells, stably transfected (pZeoSV vector for the Thibonnier cells); membranes
T1 sequence (P37288 whole entry): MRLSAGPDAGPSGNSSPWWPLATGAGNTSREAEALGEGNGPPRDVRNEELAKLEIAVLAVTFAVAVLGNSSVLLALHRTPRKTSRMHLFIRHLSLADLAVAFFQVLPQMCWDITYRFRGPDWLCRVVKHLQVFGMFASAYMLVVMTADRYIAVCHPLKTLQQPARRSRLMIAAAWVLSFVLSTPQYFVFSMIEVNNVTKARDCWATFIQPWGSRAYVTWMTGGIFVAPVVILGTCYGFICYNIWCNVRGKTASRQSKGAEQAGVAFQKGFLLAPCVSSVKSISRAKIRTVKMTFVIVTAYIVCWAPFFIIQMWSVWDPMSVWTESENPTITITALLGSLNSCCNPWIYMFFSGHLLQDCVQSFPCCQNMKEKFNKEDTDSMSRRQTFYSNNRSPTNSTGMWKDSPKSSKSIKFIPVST
Text: Vasopressin Binding in Chinese Hamster Ovary Cell Membranes Expressing Human Vasopressin V1a Subtype Receptors
Chinese hamster ovary cells (CHO cells) stably transfected with the human vasopressin V1a subtype receptors were either obtained from Biosignal Inc., 1744 rue Williams, Montreal, Quebec, Canada or obtained from M. Thibonnier, Case Western Reserve University School of Medicine, Cleveland, Ohio. A. Passaging and Amplification of Cells: CHO cells transfected with the human vasopressin V1a subtype receptors obtained from M. Thibonnier (pZeoSV vector) are allowed to grow to confluency (approx. >90%) in T-150 flasks under sterile conditions, in a cell culture medium of F-12 Nutrient Mixture (HAM) with L-glutamine (Gibco Cat. #11765-054) containing 15 mM HEPES (Gibco Cat. #15630-080), 1% antibiotic/antimycotic (add 5 mL 100×, Gibco Cat. #15240-062 per 500 mL F-12), 250 μg/mL Zeocin (add 1.25 mL of 100 mg/mL Invitrogen R-250-01 per 500 mL F-12) and 10% Fetal Bovine Serum (Qualified, heat inactivated, Gibco Cat. #16140-063). The medium is removed by aspiration and the cells are washed with 10 mL of Hank's Balanced Salt solution (Gibco Cat. #14175-095). The salt solution is removed by aspiration and the cells are trypsinized with 5 mL of trypsin-EDTA (0.05% trypsin, 0.53 mM EDTA-4Na, Gibco Cat. #25300-070) for 1 min. The trypsin is removed by aspiration and the cells dislodged by tapping. Cell Culture medium (eg, 30 mL for 1:30 split) is immediately added and mixed well to inactivate trypsin. 1 mL of detached cells is added to new culture flasks containing fresh cell culture medium (eg, into 25 mL per T-150 flask), and mixed gently. The cells are incubated at 37° C. in 5% CO2. The medium is changed at 3 to 4 days interval (or as appropriate). The cells grow to confluency (approx. >75%–95%) within 7–8 days. All steps are done under sterile conditions. B. Membrane Preparation: The cells are washed twice gently with Hank's Balanced Salt solution (e.g.,. use 10 mL per T-150 flask). The excess is removed and the cells are bathed for 15–30 min. in an enzyme-free Cell Dissociation Buffer (e.g. use 8 mL Hank's Based, Gibco Cat. #13150-016 per T-150 flask) until the cells are loosened. The contents are transferred to centrifuge tubes (50 mL size) kept in ice bath. All subsequent steps are done at 4° C. The tubes are centrifuged at 300×g for 15 min (1380 rpm on SORVAL, Model RT6000D, using rotor for 50 mL tubes). The supernatant is discarded and the cells suspended in homogeneizing buffer (10 mM Tris-HCl containing 0.25 M sucrose and 1 mM EDTA, pH 7.4) ensuring that the volume of the buffer is about ten times the volume of the cell pellet. The cells are pooled into a centrifuge tube (50 mL) and homogenized with Polytron at setting 6 for 10 sec. The homogenate is transferred into a Potter-Elvjehm homogenizer and homogenized with 3 strokes. The homogenate is centrifuged at 1500×g for 10 min at 4° C. (3100 rpm using SORVAL, model RT6000D, using rotor for 50 mL tubes). The pellet is discarded. The supernatant is centrifuged at 100,000×g for 60 min. at 4° C. (Beckman L8-80M ultracentrifuge; spin at 37,500 rpm with rotor type 70 Ti for 50 mL tubes; 38,000 rpm with type 80Ti for 15 mL tubes; or 35,800 rpm with rotor type 45Ti). The supernantant is discarded and the pellet suspended in 3 to 4 mL of Tris buffer (50 mM TRIS-HCl, pH 7.4). The protein content is estimated by the Bradford or Lowry method. The volume of the membrane suspension is adjusted with the membrane buffer (50 mM Tris-HCl containing 0.1% BSA and 0.1 mM PMSF) to give 3.0 mg/mL (or as appropriate) of protein. The membranes are aliquoted and stored at −70° C. C. […]

| Compound | inhibition at 0.1 µM [1] | melting point | also measured |
| --- | --- | --- | --- |
| CC1=C(c2ccc(C(=O)N3Cc4cccn4Cc4ccccc43)cc2)CCCC1=O [Example 26, 3-[4-(10,11-Dihydro-5H-pyrrolo[2,1-c][1,4]benzodiazepine-10-carbonyl)-phenyl]-2-methyl-cyclohex-2-en-1-one] | 27% | 95 to 97 °C | – |
| Cc1cc(C(=O)N2Cc3cccn3Cc3ccccc32)ccc1C1=CCC2CC1C2(C)C (centres unmarked) [Example 36, (10,11-Dihydro-5H-pyrrolo[2,1-c][1,4]benzodiazepin-10-yl)-[4-(6,6-dimethyl-bicyclo[3.1.1]hept-2-en-2-yl)-3-methyl-phenyl]-methanone] | 11% | 187 °C | – |
| Cc1cc(C(=O)N2Cc3cccn3Cc3ccccc32)ccc1C1=CCC2CCC1C2 (centres unmarked) [Example 35, (10,11-Dihydro-5H-pyrrolo[2,1-c][1,4]benzodiazepin-10-yl)-(4-bicyclo[3.2.1]oct-2-en-2-yl-3-methyl-phenyl)-methanone] | 36% | 168 to 169 °C | – |
| CC1(C)C2CC=C(c3ccc(C(=O)N4Cc5cccn5Cc5ccccc54)cc3)C1C2 (centres unmarked) [Example 22, (10,11-Dihydro-5H-pyrrolo[2,1-c][1,4]benzodiazepin-10-yl)-[4-(6,6-dimethyl-bicyclo[3.1.1]hept-2-en-2-yl)-phenyl]-methanone] | 13% | 118 to 119 °C | – |
| O=C(c1ccc(C2=CCCc3ccccc32)cc1)N1Cc2cccn2Cc2ccccc21 [Example 18, (10,11-Dihydro-5H-pyrrolo[2,1-c][1,4]benzodiazepin-10-yl)-[4-(3,4-dihydro-naphthalen-1-yl)-phenyl]-methanone] | 51% | 166 °C | – |
| O=C(c1ccc(C2=CC(O)CCC2)cc1)N1Cc2cccn2Cc2ccccc21 (centres unmarked) [Example 25, (10,11-Dihydro-5H-pyrrolo[2,1-c][1,4]benzodiazepin-10-yl)-[4-(3-hydroxy-cyclohex-1-en-1-yl)-phenyl]-methanone] | 76% | – | – |
| O=C(c1ccc(C2=CCC3CCC2C3)cc1)N1Cc2cccn2Cc2ccccc21 (centres unmarked) [Example 21] | – | – | V1a % inhibition @ 100 nM [1]: 37% |
| O=C(c1ccc(C2=CCCCC2)cc1Cl)N1Cc2cccn2Cc2ccccc21 [Example 10, (10,11-dihydro-5H-pyrrolo[2,1-c][1,4]benzodiazepin-10-yl)-[2-chloro-4-(cyclohex-1-en1-yl)-phenyl]-methanone] | 94% | – | – |
| O=C(c1ccc(C2=CCCCC2)cc1)N1Cc2cccn2Cc2ccccc21 [Example 15, (10,11-Dihydro-5H-pyrrolo[2,1-c][1,4]benzodiazepin-10-yl)-(4-cyclohex-1-en-1-yl-phenyl)-methanone] | – | 156 °C | IC50 ([1]; values in parentheses): 35.3 nM |
| CC(C)(C)C1CCCC=C1c1ccc(C(=O)N2Cc3cccn3Cc3ccccc32)cc1 (centres unmarked) [Example 20, (10,11-5H-Dihydro-pyrrolo[2,1-c][1,4]benzodiazepin-10-yl)-[4-(6-tert-butyl-cyclohex-1-en-1-yl)-phenyl]-methanone] | – | – | V1a % inhibition @ 100 nM [1]: 4% |
| COc1cc(C2=C(C)C(=O)CCC2)c(Cl)cc1C(=O)N1Cc2cccn2Cc2ccccc21 [Example 9, 3-[2-Chloro-5-methoxy-4-(5H-pyrrolo[2,1-c][1,4]benzodiazepin-10(11H)-yl-carbonyl)phenyl]-2-methyl-cyclohex-2-en-1-one] | 17% | – | – |
| CC1=C(c2ccc(C(=O)N3Cc4cccn4Cc4ccccc43)c(Cl)c2)CCCC1O (centres unmarked) [Example 14, (10,11-Dihydro-5H-pyrrolo[2,1-c][1,4]benzodiazepin-10-yl)-[2-chloro-4-(3-hydroxy-2-methyl-cyclohex-1-en-1-yl)-phenyl]-methanone] | 10% | – | – |
| CC1=C(c2ccc(C(=O)N3Cc4cccn4Cc4ccccc43)cc2)CCCC1O (centres unmarked) [Example 27, (10,11-Dihydro-5H-pyrrolo[2,1-c][1,4]benzodiazepin-10-yl)-[4-(3-hydroxy-2-methyl-cyclohex-1-en-1-yl)-phenyl]-methanone] | 89% | – | – |
| CC1(C)CCCC=C1c1ccc(C(=O)N2Cc3cccn3Cc3ccccc32)c(Cl)c1 [Example 12, (10,11-Dihydro-5H-pyrrolo[2,1-c][1,4]benzodiazepin-10-yl)-[2-chloro-4-(6,6-dimethyl-cyclohex-1-en-1-yl)-phenyl]-methanone] | 54% | – | – |
| CC1=C(c2ccc(C(=O)N3Cc4cccn4Cc4ccccc43)c(Cl)c2)CCCC1=O [Example 13, (10,11-Dihydro-5H-pyrrolo[2,1-c][1,4]benzodiazepin-10-yl)-[2-chloro-4-(2-methyl-3-oxo-cyclohex-1-en-1-yl)-phenyl]-methanone] | 95% | – | – |

Now from value to compound, other results behind:

| inhibition at 0.1 µM [1] | melting point | Compound | also measured |
| --- | --- | --- | --- |
| 74% | 182 to 183 °C | Cc1cc(C(=O)N2Cc3cccn3Cc3ccccc32)ccc1C1=CCCCC1 [Example 2, (10,11-Dihydro-5H-pyrrolo[2,1-c][1,4]benzodiazepin-10-yl)-(4-cyclohex-1-en-1-yl-3-methyl-phenyl)-methanone] | – |
| 36% | – | CC1=C(c2ccc(C(=O)N3Cc4cccn4Cc4ccccc43)cc2C)CCC[C@H]1O (single isomer, unassigned) [Example 41] | – |
| 85% | 127 to 128 °C | CO[C@@H]1CCCC(c2ccc(C(=O)N3Cc4cccn4Cc4ccccc43)cc2C)=C1C [Example 44, 10-{4-[(3R)-3-Methoxy-2-methylcyclohex-1-en-1-yl]-3-methylbenzoyl}-10,11-dihydro-5H-pyrrolo[2,1-c][1,4]benzodiazepine] | – |
| 91% | – | Cc1cc(C(=O)N2Cc3cccn3Cc3ccccc32)ccc1C1=CC(O)CCC1 (centres unmarked) [Example 40, (10,11-Dihydro-5H-pyrrolo[2,1-c][1,4]benzodiazepin-10-yl)-[4-(3-hydroxy-cyclohex-1-en-1-yl)-3-methyl-phenyl]-methanone] | – |
| 0% | – | CC1=C(c2ccc(C(=O)N3Cc4cccn4Cc4ccccc43)cc2C)CCCC1O (racemic) [Example 5, (10,11-Dihydro-5H-pyrrolo[2,1-c][1,4]benzodiazepin-10-yl)-[4-(3-hydroxy-2-methyl-cyclohex-1-en-1-yl)-3-methyl-phenyl]-methanone] | – |
| 45% | – | CC1=C(c2ccc(C(=O)N3Cc4cccn4Cc4ccccc43)cc2C)CCC[C@H]1O [Example 6, (10,11-Dihydro-5H-pyrrolo[2,1-c][1,4]benzodiazepin-10-yl)-[4-((3R)-3-hydroxy-2-methyl-cyclohex-1-en-1-yl)-3-methyl-phenyl]-methanone] | – |
| 7% | – | CC1=C(c2ccc(C(=O)N3Cc4cccn4Cc4ccccc43)cc2C)CCCC1=O [Example 4, 3-[2-Methyl-4-(5H-pyrrolo[2,1-c][1,4]benzodiazepin-10(11H)-yl-carbonyl)phenyl]-2-methyl-cyclohex-2-en-1-one] | – |
| 50% | – | CC1=C(c2ccc(C(=O)N3Cc4cccn4Cc4ccccc43)cc2C)CCCC1N (centres unmarked) [Example 45, [4-(3-Amino-2-methyl-cyclohex-1-en-1-yl)-3-methyl-phenyl]-(10,11-dihydro-5H-pyrrolo[2,1-c][1,4]benzodiazepin-10-yl)-methanone] | – |
| 93% | – | CC1=C(c2ccc(C(=O)N3Cc4cccn4Cc4ccccc43)cc2C)CCC[C@@H]1O (single isomer, unassigned) [Example 43] | – |
